Here are results for eleven molecules from patent US9809623B2, “α4β7 peptide monomer and dimer antagonists” (Protagonist Therapeutics, Inc., priority 2014, dated 2017).

Numbered stars: 1 amine (or outer) side, 2 acyl side, 3 side chain; on linkers, the order of the positions; unused ones are H or OH. Bridge positions count the residues as written; N and C are the ends. Square brackets hold non-standard residues; d marks the D form. Peptide text beside a SMILES is read from it. I, II: the chains in the order shown. X1 = O=C(CCOCCOCCOCCOCCOCCOCCOCCOCCOCCOCCOCCOCCOCCOCCOCCOCCOCCOCCOCCOCCOCCOCCOCCOCCOCCOCCC(=O)[*:2])[*:1]; X4 = O=C(CCOCCOCCOCCOCCOCCOCCOCCOCCOCCOCCOCCOCCOCCOCCC(=O)[*:2])[*:1]; 2Nal = N[C@@H](Cc1ccc2ccccc2c1)C(=O)O; Diglycolyl = O=C(COCC(=O)[*:2])[*:1]; NMeR = CN[C@@H](CCCNC(=N)N)C(=O)O; Pen = CC(C)(S)[C@H](N)C(=O)O; Dab = NCC[C@H](N)C(=O)O; Dap = NC[C@H](N)C(=O)O

Chain of α4β7 (P13612 34-1032): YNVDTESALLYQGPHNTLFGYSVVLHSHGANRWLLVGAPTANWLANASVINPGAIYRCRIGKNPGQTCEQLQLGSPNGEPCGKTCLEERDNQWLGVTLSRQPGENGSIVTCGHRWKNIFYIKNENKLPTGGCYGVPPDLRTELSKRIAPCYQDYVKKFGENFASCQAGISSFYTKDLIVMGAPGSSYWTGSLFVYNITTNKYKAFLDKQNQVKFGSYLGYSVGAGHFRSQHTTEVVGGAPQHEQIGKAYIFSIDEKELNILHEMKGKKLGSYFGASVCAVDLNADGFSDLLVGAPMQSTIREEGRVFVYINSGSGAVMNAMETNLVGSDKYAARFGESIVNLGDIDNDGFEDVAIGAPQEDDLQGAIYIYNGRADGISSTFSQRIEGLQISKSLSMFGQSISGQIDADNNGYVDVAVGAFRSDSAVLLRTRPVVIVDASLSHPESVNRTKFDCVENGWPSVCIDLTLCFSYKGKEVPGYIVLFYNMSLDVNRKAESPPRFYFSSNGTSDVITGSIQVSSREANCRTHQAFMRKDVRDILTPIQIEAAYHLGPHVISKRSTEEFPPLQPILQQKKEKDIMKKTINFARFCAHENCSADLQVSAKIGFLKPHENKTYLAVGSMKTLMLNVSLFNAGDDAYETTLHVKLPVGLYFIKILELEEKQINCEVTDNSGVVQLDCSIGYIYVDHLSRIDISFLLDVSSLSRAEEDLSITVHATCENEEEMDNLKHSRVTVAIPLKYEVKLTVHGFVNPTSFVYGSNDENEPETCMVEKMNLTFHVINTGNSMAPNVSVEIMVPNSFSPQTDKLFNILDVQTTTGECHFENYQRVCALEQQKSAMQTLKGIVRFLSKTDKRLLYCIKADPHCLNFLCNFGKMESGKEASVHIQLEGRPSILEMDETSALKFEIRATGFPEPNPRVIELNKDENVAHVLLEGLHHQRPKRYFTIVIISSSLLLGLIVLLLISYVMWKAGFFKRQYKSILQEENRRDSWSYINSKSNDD
Chain of α4β7 (P26010 20-798): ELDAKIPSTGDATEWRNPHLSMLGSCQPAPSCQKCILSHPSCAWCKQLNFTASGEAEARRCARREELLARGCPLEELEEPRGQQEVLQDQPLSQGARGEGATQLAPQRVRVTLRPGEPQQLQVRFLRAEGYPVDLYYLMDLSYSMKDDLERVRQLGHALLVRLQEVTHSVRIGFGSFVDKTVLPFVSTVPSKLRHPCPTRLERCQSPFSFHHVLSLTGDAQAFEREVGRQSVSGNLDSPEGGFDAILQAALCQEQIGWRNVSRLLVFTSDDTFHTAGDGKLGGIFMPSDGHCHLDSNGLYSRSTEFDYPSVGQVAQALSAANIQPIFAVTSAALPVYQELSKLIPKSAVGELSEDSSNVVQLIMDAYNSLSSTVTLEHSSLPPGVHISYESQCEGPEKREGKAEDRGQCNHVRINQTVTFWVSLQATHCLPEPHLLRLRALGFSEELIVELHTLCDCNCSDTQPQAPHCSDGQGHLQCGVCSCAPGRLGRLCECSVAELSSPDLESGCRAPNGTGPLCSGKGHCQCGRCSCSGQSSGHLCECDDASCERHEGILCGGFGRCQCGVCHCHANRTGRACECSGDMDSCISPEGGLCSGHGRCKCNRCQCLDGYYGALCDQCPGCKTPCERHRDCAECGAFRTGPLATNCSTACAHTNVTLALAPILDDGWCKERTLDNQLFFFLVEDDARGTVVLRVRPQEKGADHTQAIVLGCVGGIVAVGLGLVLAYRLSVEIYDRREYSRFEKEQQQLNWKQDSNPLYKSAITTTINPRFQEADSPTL

In this experiment the target is α4β7 (Homo sapiens, UniProt P13612+P26010). Briefly: α4β7-MAdCAM Cell Adhesion Assay (RPMI 8866 human cells). In kind it is cell-based. More on the design: host or cells: RPMI 8866 human B lymphoblastoid cells. As to conditions: Table 3-B, Potency (α4β7); range classes; read-out: α4β7 cell (Hu) IC50. How it is done:
RPMI 8866 human cells (Sigma #95041316) were cultured in RPMI 1640 HEPES medium (Invitrogen #22400-089) supplemented with 10% serum (Fetal Bovine Serum, Invitrogen #16140-071), 1 mM sodium pyruvate (Invitrogen #11360-070), 2 mM L-glutamine (Invitrogen #25030-081) and Penicillin-Streptomycin (Invitrogen #15140-122) at 100 units of penicillin and 100 μg of streptomycin per ml. The cells were washed two times in DMEM medium (ATCC #30-2002) supplemented with 0.1% BSA, 10 mM HEPES pH 7 and 1 mM MnCl2. The cells were re-suspended in supplemented DMEM medium at a density of 4×10^6 cells/ml.
A Nunc MaxiSorp plate was coated with rh MAdCAM-1/Fc Chimera (R&D #6065-MC) at 200 ng per well in 50 ul per well in 1×PBS and incubated at 4° C. overnight. The solution was then removed by shaking, blocked with 250 ul per well PBS containing 1% BSA, and incubated at 37° C. for 1 hr. The solution was removed by shaking. Peptides were diluted by serial dilution in a final volume of 50 ul per well (2× concentration). To each well, 50 ul of cells (200,000 cells) were added and the plate was incubated at 37° C., 5% CO2 for 30-45 min to allow cell adhesion. The wells were washed manually three times (100 ul per wash) with supplemented DMEM. After the final wash, 100 ul/well of supplemented DMEM and 10 ul/well of MTT reagent (ATTC cat#30-1010K) were added. The plate was incubated at 37° C., 5% CO2 for 2-3 hrs until a purple precipitate was visible. 100 ul of Detergent Reagent (ATTC cat#30-1010K) was added to each well. The plate was covered from the light, wrapped in Parafilm to prevent evaporation, and left overnight at room temperature in the dark. The plate was shaken for 5 min and the absorbance at 570 nm was measured. To calculate the dose response, the absorbance value of control wells not containing cells was subtracted from each test well.
Usually IC50 stands for the concentration needed to halve the response being measured. Take `CC(=O)N[C@H]1CSSC(C)(C)[C@@H](C(=O)N[C@@H](Cc2c[nH]c3ccccc23)C(=O)N[C@H](CCCCNC(=O)CCOCCOCCOCCOCCOCCOCCOCCOCCOCCOCCOCCOCCOCCOCCC(=O)NCCCC[C@@H](NC(=O)[C@H](Cc2c[nH]c3ccccc23)NC(=O)[C@H]2NC(=O)[C@H](CC(C)C)NC(=O)[C@H]([C@@H](C)O)NC(=O)[C@H](CC(=O)O)NC(=O)[C@H](CO)NC(=O)[C@H](CCCNC(=N)N)N(C)C(=O)[C@@H](NC(C)=O)CSSC2(C)C)C(N)=O)C(N)=O)NC(=O)[C@H](CC(C)C)NC(=O)[C@H]([C@@H](C)O)NC(=O)[C@H](CC(=O)O)NC(=O)[C@H](CO)NC(=O)[C@H](CCCNC(=N)N)N(C)C1=O` [compound 36] (I: Ac-C[NMeR]SDTL[Pen]W[dK]-NH2 / II: Ac-C[NMeR]SDTL[Pen]W[dK]-NH2; disulfide I:1-I:7, II:1-II:7; linker I:9-II:9 via X4): the IC50 was in the range of 50 to 100 nM. Turning to `CC(=O)N[C@H]1CSSC(C)(C)[C@@H](C(=O)N[C@@H](Cc2c[nH]c3ccccc23)C(=O)N[C@H](CCCCNC(=O)CCOCCOCCOCCOCCOCCOCCOCCOCCOCCOCCOCCOCCOCCOCCOCCOCCOCCOCCOCCOCCOCCOCCOCCOCCOCCOCCC(=O)NCCCC[C@@H](NC(=O)[C@H](Cc2c[nH]c3ccccc23)NC(=O)[C@H]2NC(=O)[C@H](CC(C)C)NC(=O)[C@H]([C@@H](C)O)NC(=O)[C@H](CC(=O)O)NC(=O)[C@H](CO)NC(=O)[C@H](CCCNC(=N)N)N(C)C(=O)[C@@H](NC(C)=O)CSSC2(C)C)C(N)=O)C(N)=O)NC(=O)[C@H](CC(C)C)NC(=O)[C@H]([C@@H](C)O)NC(=O)[C@H](CC(=O)O)NC(=O)[C@H](CO)NC(=O)[C@H](CCCNC(=N)N)N(C)C1=O` [compound 37] (I: Ac-C[NMeR]SDTL[Pen]W[dK]-NH2 / II: Ac-C[NMeR]SDTL[Pen]W[dK]-NH2; disulfide I:1-I:7, II:1-II:7; linker I:9-II:9 via X1), the IC50 fell in the range of 100 to 500 nM. In the case of `CC(=O)N[C@@H]1C(=O)N(C)[C@@H](CCCNC(=N)N)C(=O)N[C@@H](CO)C(=O)N[C@@H](CC(=O)O)C(=O)N[C@@H]([C@@H](C)O)C(=O)N[C@@H](CC(C)C)C(=O)N[C@H](C(=O)N[C@@H](Cc2c[nH]c3ccccc23)C(=O)N[C@@H](CCC(=O)O)C(=O)N[C@@H](CN)C(N)=O)C(C)(C)SSC1(C)C` [compound 59] (Ac-[Pen][NMeR]SDTL[Pen]WE[Dap]-NH2; disulfide 1-7), the IC50 was in the range of 10000 to 100000 nM.

With `CC(=O)N[C@@H]1C(=O)N(C)[C@@H](CCCNC(=N)N)C(=O)N[C@@H](CO)C(=O)N[C@@H](CC(=O)O)C(=O)N[C@@H]([C@@H](C)O)C(=O)N[C@@H](CC(C)C)C(=O)N[C@H](C(=O)N[C@@H](Cc2c[nH]c3ccccc23)C(=O)N[C@@H](CCC(=O)O)C(=O)N[C@@H](CCN)C(N)=O)C(C)(C)SSC1(C)C` [compound 61] (Ac-[Pen][NMeR]SDTL[Pen]WE[Dab]-NH2; disulfide 1-7), the IC50 fell in the range of 1000 to 10000 nM.

Take `CC(=O)N[C@@H]1C(=O)N(C)[C@@H](CCCNC(=N)N)C(=O)N[C@@H](CO)C(=O)N[C@@H](CC(=O)O)C(=O)N[C@@H]([C@@H](C)O)C(=O)N[C@@H](CC(C)C)C(=O)N[C@H](C(=O)N[C@@H](Cc2c[nH]c3ccccc23)C(=O)N[C@H](CCC(=O)O)C(=O)N[C@H](CCCCNC(=O)CN(CC(=O)NCCCC[C@@H](NC(=O)[C@@H](CCC(=O)O)NC(=O)[C@H](Cc2c[nH]c3ccccc23)NC(=O)[C@H]2NC(=O)[C@H](CC(C)C)NC(=O)[C@H]([C@@H](C)O)NC(=O)[C@H](CC(=O)O)NC(=O)[C@H](CO)NC(=O)[C@H](CCCNC(=N)N)N(C)C(=O)[C@@H](NC(C)=O)C(C)(C)SSC2(C)C)C(N)=O)C(=O)CCN)C(N)=O)C(C)(C)SSC1(C)C` [compound 70]: the IC50 was in the range of 25 to 50 nM.

Turning to `CC(=O)N[C@@H]1C(=O)N(C)[C@@H](CCCNC(=N)N)C(=O)N[C@@H](CO)C(=O)N[C@@H](CC(=O)O)C(=O)N[C@@H]([C@@H](C)O)C(=O)N[C@@H](CC(C)C)C(=O)N[C@H](C(=O)N[C@@H](Cc2c[nH]c3ccccc23)C(=O)N[C@H](CCC(=O)O)C(=O)N[C@H](CCCCNC(=O)CN(CC(=O)NCCCC[C@@H](NC(=O)[C@@H](CCC(=O)O)NC(=O)[C@H](Cc2c[nH]c3ccccc23)NC(=O)[C@H]2NC(=O)[C@H](CC(C)C)NC(=O)[C@H]([C@@H](C)O)NC(=O)[C@H](CC(=O)O)NC(=O)[C@H](CO)NC(=O)[C@H](CCCNC(=N)N)N(C)C(=O)[C@@H](NC(C)=O)C(C)(C)SSC2(C)C)C(N)=O)C(=O)CCNC(=O)CCCCC2SCC3NC(=O)NC32)C(N)=O)C(C)(C)SSC1(C)C` (some centres unmarked) [compound 71], the IC50 fell in the range of 25 to 50 nM.

`CC(=O)N[C@@H]1C(=O)N(C)[C@@H](CCCNC(=N)N)C(=O)N[C@@H](CO)C(=O)N[C@@H](CC(=O)O)C(=O)N[C@@H]([C@@H](C)O)C(=O)N[C@@H](CC(C)C)C(=O)N[C@H](C(=O)N[C@@H](Cc2ccc3ccccc3c2)C(=O)N[C@@H](CCC(=O)O)C(N)=O)C(C)(C)SSC1(C)C` [compound 75] (Ac-[Pen][NMeR]SDTL[Pen][2Nal]E-NH2; disulfide 1-7): the IC50 lay in the range of 50 to 100 nM.

In the case of `CC(=O)N[C@@H]1C(=O)N(C)[C@@H](CCCNC(=N)N)C(=O)N[C@@H](CO)C(=O)N[C@@H](CC(=O)O)C(=O)N[C@@H]([C@@H](C)O)C(=O)N[C@@H](CC(C)C)C(=O)N[C@H](C(=O)N[C@@H](Cc2c[nH]c3ccccc23)C(=O)N[C@H](CCCCNC(=O)COCC(=O)NCCCC[C@@H](NC(=O)[C@H](Cc2c[nH]c3ccccc23)NC(=O)[C@H]2NC(=O)[C@H](CC(C)C)NC(=O)[C@H]([C@@H](C)O)NC(=O)[C@H](CC(=O)O)NC(=O)[C@H](CO)NC(=O)[C@H](CCCNC(=N)N)N(C)C(=O)[C@@H](NC(C)=O)C(C)(C)SSC2(C)C)C(=O)O)C(=O)O)C(C)(C)SSC1(C)C` [compound 76] (I: Ac-[Pen][NMeR]SDTL[Pen]W[dK]-OH / II: Ac-[Pen][NMeR]SDTL[Pen]W[dK]-OH; disulfide I:1-I:7, II:1-II:7; linker I:9-II:9 via Diglycolyl), the IC50 fell in the range of 10 to 25 nM.

On to `CC(=O)N[C@@H]1C(=O)N(C)[C@@H](CCCNC(=N)N)C(=O)N[C@@H](CO)C(=O)N[C@@H](CC(=O)O)C(=O)N[C@@H]([C@@H](C)O)C(=O)N[C@@H](CC(C)C)C(=O)N[C@H](C(=O)N[C@@H](Cc2c[nH]c3ccccc23)C(=O)N[C@@H](CCC(N)=O)C(=O)N[C@H](CCCCNC(=O)COCC(=O)NCCCC[C@@H](NC(=O)[C@H](CCC(N)=O)NC(=O)[C@H](Cc2c[nH]c3ccccc23)NC(=O)[C@H]2NC(=O)[C@H](CC(C)C)NC(=O)[C@H]([C@@H](C)O)NC(=O)[C@H](CC(=O)O)NC(=O)[C@H](CO)NC(=O)[C@H](CCCNC(=N)N)N(C)C(=O)[C@@H](NC(C)=O)C(C)(C)SSC2(C)C)C(N)=O)C(N)=O)C(C)(C)SSC1(C)C` [compound 82] (I: Ac-[Pen][NMeR]SDTL[Pen]WQ[dK]-NH2 / II: Ac-[Pen][NMeR]SDTL[Pen]WQ[dK]-NH2; disulfide I:1-I:7, II:1-II:7; linker I:10-II:10 via Diglycolyl), for which the IC50 lay within 50 to 100 nM. Then `CC(=O)N[C@@H]1C(=O)N(C)[C@@H](CCCNC(=N)N)C(=O)N[C@@H](CO)C(=O)N[C@@H](CC(=O)O)C(=O)N[C@@H]([C@@H](C)O)C(=O)N[C@@H](CC(C)C)C(=O)N[C@H](C(=O)N[C@@H](Cc2c[nH]c3ccccc23)C(=O)N[C@@H](CC(N)=O)C(=O)N[C@H](CCCCNC(=O)COCC(=O)NCCCC[C@@H](NC(=O)[C@H](CC(N)=O)NC(=O)[C@H](Cc2c[nH]c3ccccc23)NC(=O)[C@H]2NC(=O)[C@H](CC(C)C)NC(=O)[C@H]([C@@H](C)O)NC(=O)[C@H](CC(=O)O)NC(=O)[C@H](CO)NC(=O)[C@H](CCCNC(=N)N)N(C)C(=O)[C@@H](NC(C)=O)C(C)(C)SSC2(C)C)C(N)=O)C(N)=O)C(C)(C)SSC1(C)C` [compound 83] (I: Ac-[Pen][NMeR]SDTL[Pen]WN[dK]-NH2 / II: Ac-[Pen][NMeR]SDTL[Pen]WN[dK]-NH2; disulfide I:1-I:7, II:1-II:7; linker I:10-II:10 via Diglycolyl), with 50 to 100 nM; and `CC(=O)N[C@@H]1C(=O)N(C)[C@@H](CCCNC(=N)N)C(=O)N[C@@H](CO)C(=O)N[C@@H](CC(=O)O)C(=O)N[C@@H]([C@@H](C)O)C(=O)N[C@@H](CC(C)C)C(=O)N[C@H](C(=O)N[C@@H](Cc2c[nH]c3ccccc23)C(=O)N[C@@H](Cc2ccccc2)C(=O)N[C@H](CCCCNC(=O)COCC(=O)NCCCC[C@@H](NC(=O)[C@H](Cc2ccccc2)NC(=O)[C@H](Cc2c[nH]c3ccccc23)NC(=O)[C@H]2NC(=O)[C@H](CC(C)C)NC(=O)[C@H]([C@@H](C)O)NC(=O)[C@H](CC(=O)O)NC(=O)[C@H](CO)NC(=O)[C@H](CCCNC(=N)N)N(C)C(=O)[C@@H](NC(C)=O)C(C)(C)SSC2(C)C)C(N)=O)C(N)=O)C(C)(C)SSC1(C)C` [compound 85] (I: Ac-[Pen][NMeR]SDTL[Pen]WF[dK]-NH2 / II: Ac-[Pen][NMeR]SDTL[Pen]WF[dK]-NH2; disulfide I:1-I:7, II:1-II:7; linker I:10-II:10 via Diglycolyl), with less than 10 nM.
